Measurements taken from ChEMBL document CHEMBL1201862, “PubChem BioAssay data set” (2004).
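Tested at 5 concentrations; 48 h exposure; 96-well plates; endpoints linearly interpolated, else capped at highest concentration. GI50 is the concentration that inhibits growth by half.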 Calls of active or inactive are those of the source. No stated cut-off is given here; in the data, active = GI50 up to about 1.1 µM and inactive = higher.

Assays:
Assay in all cases: NCI-60 cell line screen, 48 h
RXF 393 = system: RXF 393
HCC 2998 = system: HCC 2998
SK-MEL-5 = system: SK-MEL-5
CAKI-1 = system: CAKI-1
COLO 205 = system: COLO 205
A498 = system: A498
UACC-257 = system: UACC-257
SK-OV-3 = system: SK-OV-3
MDA-MB-231 = system: MDA-MB-231
LOX IMVI = system: LOX IMVI
HT-29 = system: HT-29
OVCAR-5 = system: OVCAR-5
Malme-3M = system: Malme-3M
UACC-62 = system: UACC-62
SR = system: SR
SNB-75 = system: SNB-75
OVCAR-3 = system: OVCAR-3
CCRF-CEM = system: CCRF-CEM
T47D = system: T47D

Row | SMILES | GI50 (RXF 393) | GI50 (HCC 2998) | GI50 (SK-MEL-5) | GI50 (CAKI-1) | GI50 (COLO 205) | GI50 (A498) | GI50 (UACC-257) | GI50 (SK-OV-3) | GI50 (MDA-MB-231) | GI50 (LOX IMVI) | GI50 (HT-29) | GI50 (OVCAR-5) | GI50 (Malme-3M) | GI50 (UACC-62) | GI50 (SR) | GI50 (SNB-75) | GI50 (OVCAR-3) | GI50 (CCRF-CEM) | GI50 (T47D)
1 | Cc1cc(C(=O)CSC(=S)SC(C)(C)C)ccc1Cl | 13.4 µM (inactive) | 16.7 µM (inactive) | 17.8 µM (inactive) | 34.2 µM (inactive) | 18.4 µM (inactive) | 16.3 µM (inactive) | 18.2 µM (inactive) | 34.1 µM (inactive) | 19.7 µM (inactive) | 19.9 µM (inactive) | 25.1 µM (inactive) | 21.9 µM (inactive) | 16.8 µM (inactive) | 16.1 µM (inactive) | 16.9 µM (inactive) | 18.2 µM (inactive) | 16.4 µM (inactive) |  | 
2 | Cc1cn([C@@H]2O[C@H](CO[Si](C)(C)C(C)(C)C)[C@]3(O[C@H]3C(=O)NO)[C@H]2O[Si](C)(C)C(C)(C)C)c(=O)[nH]c1=O | 1.73 µM (inactive) | 1.61 µM (inactive) | 1.92 µM (inactive) | 2.07 µM (inactive) | 1.76 µM (inactive) | 1.9 µM (inactive) | 2.59 µM (inactive) | 1.87 µM (inactive) | 2.09 µM (inactive) | 1.76 µM (inactive) | 1.53 µM (inactive) | 1.78 µM (inactive) | 2.14 µM (inactive) | 1.82 µM (inactive) |  | 1.71 µM (inactive) | 1.61 µM (inactive) | 0.634 µM (active) | 1.66 µM (inactive)
3 | CCN1CCCCC(=N\O)/C(=N/O)CCCC1 | > 100 µM (inactive) |  | > 100 µM (inactive) | > 100 µM (inactive) | > 100 µM (inactive) | > 100 µM (inactive) | > 100 µM (inactive) | > 100 µM (inactive) | > 100 µM (inactive) | > 100 µM (inactive) | > 100 µM (inactive) | > 100 µM (inactive) | > 100 µM (inactive) | > 100 µM (inactive) | > 100 µM (inactive) | > 100 µM (inactive) | > 100 µM (inactive) | > 100 µM (inactive) | 
4 | S=C1NC2=C(COc3ccccc32)C(c2ccc(Cl)cc2)N1 (centres undefined) | 15.5 µM (inactive) |  | 15 µM (inactive) |  | 18.7 µM (inactive) | 18.1 µM (inactive) | 21.2 µM (inactive) | 19.6 µM (inactive) | 17.4 µM (inactive) | 16.3 µM (inactive) | 15.5 µM (inactive) | 16.3 µM (inactive) |  | 17.4 µM (inactive) |  | 20 µM (inactive) | 15.3 µM (inactive) | 21.3 µM (inactive) | 18.2 µM (inactive)
5 | Cc1ccc(S(=O)(=O)N/N=C/c2oc(-c3ccccc3Cl)c(-c3ccccc3Cl)c2[N+](=O)[O-])cc1 | 13.8 µM (inactive) | 21 µM (inactive) | 19.5 µM (inactive) | 36.9 µM (inactive) | 28.1 µM (inactive) | 20.8 µM (inactive) | 37.2 µM (inactive) | 45 µM (inactive) |  |  | 31.2 µM (inactive) | 17.5 µM (inactive) | 24 µM (inactive) | 17.8 µM (inactive) | 7.64 µM (inactive) |  | > 100 µM (inactive) | 7.24 µM (inactive) | 
6 | COc1cc(C(C)=O)cc(C(=O)N(C(C)C)C(C)C)c1[Si](C)(C)C |  |  | > 100 µM (inactive) | > 100 µM (inactive) | > 100 µM (inactive) | > 100 µM (inactive) | > 100 µM (inactive) | 28.9 µM (inactive) | > 100 µM (inactive) | > 100 µM (inactive) |  |  |  | > 100 µM (inactive) |  | 9.2 µM (inactive) | > 100 µM (inactive) | > 100 µM (inactive) | > 100 µM (inactive)
7 | CC1(C)/C(=N\NC(N)=O)C2CCC1C2 (centres undefined) |  |  | > 100 µM (inactive) | > 100 µM (inactive) | > 100 µM (inactive) |  | > 100 µM (inactive) | > 100 µM (inactive) |  | > 100 µM (inactive) | > 100 µM (inactive) | > 100 µM (inactive) | > 100 µM (inactive) | > 100 µM (inactive) | > 100 µM (inactive) | > 100 µM (inactive) | > 100 µM (inactive) | > 100 µM (inactive) | > 100 µM (inactive)
8 | COc1cc(C2c3cc4c(cc3C(=O)C3CCC(=O)N32)OCO4)cc(OC)c1O (centres undefined) | > 50 µM (inactive) |  |  |  | > 50 µM (inactive) | > 50 µM (inactive) | > 50 µM (inactive) | > 50 µM (inactive) |  |  | > 50 µM (inactive) | > 50 µM (inactive) |  | > 50 µM (inactive) | > 50 µM (inactive) | > 50 µM (inactive) | > 50 µM (inactive) | > 50 µM (inactive) | > 50 µM (inactive)
9 | CN(CCc1ccccn1)c1ccc2c(c1)C(=O)c1ccccc1-2 | > 100 µM (inactive) | > 100 µM (inactive) | 35.1 µM (inactive) | > 100 µM (inactive) | 35.5 µM (inactive) | 35.2 µM (inactive) | 54.6 µM (inactive) | > 100 µM (inactive) | > 100 µM (inactive) | > 100 µM (inactive) | 66.4 µM (inactive) | > 100 µM (inactive) | > 100 µM (inactive) | 46.1 µM (inactive) |  | 99.1 µM (inactive) | > 100 µM (inactive) | > 100 µM (inactive) | 73.8 µM (inactive)
10 | CC(=O)C1CCN(c2ccccc2)C1 (centres undefined) | > 100 µM (inactive) |  | > 100 µM (inactive) | > 100 µM (inactive) |  | > 100 µM (inactive) | > 100 µM (inactive) | > 100 µM (inactive) |  |  | > 100 µM (inactive) | > 100 µM (inactive) |  | > 100 µM (inactive) | > 100 µM (inactive) | > 100 µM (inactive) | > 100 µM (inactive) | > 100 µM (inactive) | 
11 | CC(=O)/C(=C/NC(=S)c1cccnc1)C(=O)Nc1ccccc1C | > 100 µM (inactive) | > 100 µM (inactive) | > 100 µM (inactive) | 41.3 µM (inactive) | > 100 µM (inactive) | > 100 µM (inactive) | > 100 µM (inactive) | > 100 µM (inactive) | > 100 µM (inactive) | > 100 µM (inactive) | > 100 µM (inactive) | > 100 µM (inactive) |  | > 100 µM (inactive) |  | > 100 µM (inactive) | 82.6 µM (inactive) | > 100 µM (inactive) | > 100 µM (inactive)
12 | CCNC(=S)NNC(=O)c1ccccc1Nc1ccccc1C(=O)NNC(=S)NCC |  | > 100 µM (inactive) | > 100 µM (inactive) |  | > 100 µM (inactive) |  |  | > 100 µM (inactive) | > 100 µM (inactive) | > 100 µM (inactive) | > 100 µM (inactive) | > 100 µM (inactive) | > 100 µM (inactive) | > 100 µM (inactive) | > 100 µM (inactive) | > 100 µM (inactive) | > 100 µM (inactive) | > 100 µM (inactive) | > 100 µM (inactive)
13 | c1ccc(Nc2nnc(CCCCCCCCc3nnc(Nc4ccccc4)o3)o2)cc1 | > 100 µM (inactive) | 51.6 µM (inactive) | > 100 µM (inactive) | > 100 µM (inactive) | > 100 µM (inactive) | > 100 µM (inactive) | > 100 µM (inactive) | > 100 µM (inactive) | > 100 µM (inactive) | > 100 µM (inactive) | > 100 µM (inactive) | > 100 µM (inactive) | > 100 µM (inactive) |  |  | > 100 µM (inactive) | > 100 µM (inactive) | > 100 µM (inactive) | 
14 | Clc1ccc2c(NCCCC/N=C/c3ccccc3)ccnc2c1 | 4.09 µM (inactive) | 14.5 µM (inactive) | 13.5 µM (inactive) |  | 4.53 µM (inactive) | 3.01 µM (inactive) | 12.3 µM (inactive) | 10.1 µM (inactive) | 13.6 µM (inactive) | 13.5 µM (inactive) | 5.18 µM (inactive) | 13 µM (inactive) | 14.4 µM (inactive) |  |  | 11.1 µM (inactive) | 16.5 µM (inactive) | 6.49 µM (inactive) | 12.6 µM (inactive)
15 | CC(C)C(=O)/C=C/S/C=C/C(=O)C(C)C | 4.54 µM (inactive) |  | 5.83 µM (inactive) | 3.56 µM (inactive) | 2.94 µM (inactive) |  | 2.72 µM (inactive) | 41.8 µM (inactive) | 3.7 µM (inactive) | 3.31 µM (inactive) | 4.09 µM (inactive) | 5.27 µM (inactive) | 6.7 µM (inactive) | 9.46 µM (inactive) |  | 45.1 µM (inactive) | 3.62 µM (inactive) |  | 5.16 µM (inactive)
16 | CCCCOC(=O)C(O)Cc1ccoc1 (centres undefined) | > 100 µM (inactive) | > 100 µM (inactive) | > 100 µM (inactive) |  | > 100 µM (inactive) | > 100 µM (inactive) |  | > 100 µM (inactive) | > 100 µM (inactive) | > 100 µM (inactive) | > 100 µM (inactive) | > 100 µM (inactive) | > 100 µM (inactive) | > 100 µM (inactive) |  | > 100 µM (inactive) | > 100 µM (inactive) | > 100 µM (inactive) | > 100 µM (inactive)
17 | Oc1cc(-c2cccc(Cl)c2)nc2ncccc12 | 0.219 µM (active) | 0.0771 µM (active) | 0.0387 µM (active) | 0.101 µM (active) | 0.0782 µM (active) | 0.53 µM (active) | 84.3 µM (inactive) | 0.163 µM (active) | 0.57 µM (active) | 0.133 µM (active) | 0.0405 µM (active) |  | 0.139 µM (active) | 0.0577 µM (active) | 0.0378 µM (active) | 0.971 µM (active) | 0.0466 µM (active) | 0.0689 µM (active) | 
18 | COc1ccc2cc3[n+](cc2c1OC)CCc1cc2c(cc1-3)OCO2 [BERBERINE CHLORIDE] | 68.5 µM (inactive) |  | 4.95 µM (inactive) |  |  | 95.9 µM (inactive) |  | 84.5 µM (inactive) | 36.1 µM (inactive) | 77.1 µM (inactive) | 31 µM (inactive) | 58.3 µM (inactive) | 6.68 µM (inactive) | 29.9 µM (inactive) |  | 36.5 µM (inactive) |  | 13.2 µM (inactive) | 10.3 µM (inactive)
